Experimental data taken from patent US8084643B2, “Water-soluble prodrugs of florfenicol and its analogs” (Intervet Inc., priority 2006, dated 2011).
Like-named read-outs stand apart in the source and are kept apart here.

Legend:
[1] = Stability of prodrugs in aqueous solution at pH 7.4 (phosphate buffer); format: physicochemical
Procedure: Determination of stability of prodrugs in aqueous solutions.
Prodrugs were dissolved in pH 7.4 phosphate buffer at concentration of 1 mg/mL. • The clear solution was placed at room temperature. 400 μL aliquots of the solution were transferred at times 0, 1, 2, 8, 24, and 48 hours to plastic tubes containing 400 μL dilute HCl solution to achieve the final pH of around 4.0. Samples were analyzed by HPLC. The peak area of florfenicol was used to determine the rate of the parent drug release. at pH 4.5 • Prodrugs were dissolved in distilled water at concentration of 0.5 mg/mL. The pH was adjusted to 4.5 with dilute HCl when necessary. The clear solution was placed at room temperature. Samples for analysis were removed at times 0, 1, 2, 4, and 7 days. Samples were analyzed by HPLC. Peak area of florfenicol was used to determine the rate of the parent drug release.
(§1) Solvent: gradient with 0.1% formic acid in water, acetonitrile

[2] = as above; format: physicochemical; settings: in vitro evaluation, pH 7.4 adjusted solution
[3] = Stability of prodrugs in bovine serum; format: in vitro ADME; settings: for half-life at 0.099 mg/mL: 37° C.
Procedure: (§2) Determination of stability of prodrugs in bovine or swine serum; • 10 mg/mL in dimethylsulfoxide stock solutions of pro-drugs were prepared. 50 μL of the above stock solution was added to 5 mL bovine or swine serum, and mixed. 400 μL aliquots of the above pro-drug serum solutions were transferred into plastic tubes (one tube per time point). Solutions were incubated at 37° C. for predetermined time. Samples were removed at times 0, 1, 2, 4, 8, and 24 hours and were spiked with 400 μL of acetonitrile. Samples were stirred for 30 seconds to precipitate the protein and to stop the reaction and were centrifuged at 14,000 rpm for 5 minutes. The supernatant was collected for HPLC analysis. Peak area of florfenicol was used to determine the rate of the parent drug release HPLC Conditions
as §1

[4] = Stability of prodrugs in aqueous solution at pH 4.5; format: physicochemical; settings: distilled water, pH 4.5, room temperature, florfenicol release by HPLC
Procedure: Determination of stability of prodrugs in aqueous solutions. Prodrugs were dissolved in pH 7.4 phosphate buffer at concentration of 1 mg/mL. • The clear solution was placed at room temperature. 400 μL aliquots of the solution were transferred at times 0, 1, 2, 8, 24, and 48 hours to plastic tubes containing 400 μL dilute HCl solution to achieve the final pH of around 4.0. Samples were analyzed by HPLC. The peak area of florfenicol was used to determine the rate of the parent drug release. at pH 4.5 • Prodrugs were dissolved in distilled water at concentration of 0.5 mg/mL. The pH was adjusted to 4.5 with dilute HCl when necessary. The clear solution was placed at room temperature. Samples for analysis were removed at times 0, 1, 2, 4, and 7 days. Samples were analyzed by HPLC. Peak area of florfenicol was used to determine the rate of the parent drug release. Instrument: Agilent 1100 Column: C18, […], 2.1 mm×150 mm Flow rate: 0.5 mL/min Temperature: 30° C. Detector: UV 254 nm Injection volume: […] Solvent: gradient with 0.1% formic acid in water, acetonitrile

[5] = Stability of prodrugs in swine serum; format: in vitro ADME; settings: 37° C., florfenicol release by HPLC
Procedure: as §2, §1

[6] = pH 7.4, pH 7.4 aqueous solutions, range from a few minutes to 3 hrs, read-out: Half-lives in pH 7.4 aqueous solutions
[7] = pH 7.4, pH 7.4 phosphate buffer, 1 mg/mL, room temperature, florfenicol release by HPLC, read-out: Half life pH 7.4 (converted)

| Compound | half-life at 1 mg/mL [1, 6] | half-life at 1 mg/mL [1, 7] | formation of the rearranged isomer of the prodrug [2] | half-life at 0.099 mg/mL ([3]; florfenicol release by HPLC) | half-life at 0.5 mg/mL [4] | half-life at 0.099 mg/mL [5] | rearrangement in bovine serum [3] | half-life at 1 mg/mL ([1]; pH 7.4, pH 7.4 phosphate buffer, 1 mg/mL, room temperature, min, read-out: Half life pH 7.4 (converted)) | half-life at 0.099 mg/mL ([3]; min) |
| --- | --- | --- | --- | --- | --- | --- | --- | --- | --- |
| CS(=O)(=O)c1ccc([C@@H](OC(=O)OCCN)[C@@H](CF)NC(=O)C(Cl)Cl)cc1.Cl [Example 1, (1R,2S)-2-(2,2-dichloroacetamido)-3-fluoro-1-(4-(methylsulfonyl)phenyl)propyl 2-aminoethyl carbonate hydrochloride] | ≤ 3 h | 1.8 h | considerable amounts | 0.7 h | 202 days | – | – | – | – |
| CNCCOC(=O)O[C@H](c1ccc(S(C)(=O)=O)cc1)[C@@H](CF)NC(=O)C(Cl)Cl.Cl [Example 2, (1R,2S)-2-(2,2-dichloroacetamido)-3-fluoro-1-(4-(methylsulfonyl)phenyl)propyl 2-(methylamino)ethyl carbonate hydrochloride] | ≤ 3 h | 0.5 h | considerable amounts | – | 487 days | – | – | – | – |
| CS(=O)(=O)c1ccc([C@@H](OC(=O)CCCN)[C@@H](CF)NC(=O)C(Cl)Cl)cc1.Cl [Example 3, (1R,2S)-2-(2,2-dichloroacetamido)-3-fluoro-1-(4-(methylsulfonyl)phenyl)propyl 4-aminobutyrate hydrochloride] | – | 300 h | – | 3.5 h | – | – | – | – | – |
| C[C@@H](N)C(=O)NCCCC(=O)O[C@H](c1ccc(S(C)(=O)=O)cc1)[C@@H](CF)NC(=O)C(Cl)Cl.Cl [Example 4, (1R,2S)-2-(2,2-dichloroacetamido)-3-fluoro-1-(4-(methylsulfonyl)phenyl)propyl 4-(2-amino-propionylamino)butyrate hydrochloride] | – | 670 h | – | 6.5 h | 278 days | – | – | – | – |
| CS(=O)(=O)c1ccc([C@@H](OC(=O)OCCCN)[C@@H](CF)NC(=O)C(Cl)Cl)cc1.Cl [Example 5, (1R,2S)-2-(2,2-dichloroacetamido)-3-fluoro-1-(4-(methylsulfonyl)phenyl)propyl 3-aminopropyl carbonate hydrochloride] | – | 83 h | only a small amount of rearrangement product | 3.8 h | 248 days | 9.5 h | no rearrangement was observed | – | – |
| CNCCCOC(=O)O[C@H](c1ccc(S(C)(=O)=O)cc1)[C@@H](CF)NC(=O)C(Cl)Cl.Cl [Example 6, (1R,2S)-2-(2,2-dichloroacetamido)-3-fluoro-1-(4-(methylsulfonyl)phenyl)propyl 3-(methylamino)propyl carbonate hydrochloride] | – | 74 h | did not show any formation of the rearranged isomer | 0.69 h | 269 days | 7 h | – | – | – |
| CCNCCOC(=O)O[C@H](c1ccc(S(C)(=O)=O)cc1)[C@@H](CF)NC(=O)C(Cl)Cl.Cl [Example 7, (1R,2S)-2-(2,2-dichloroacetamido)-3-fluoro-1-(4-(methylsulfonyl)phenyl)propyl 2-(ethylamino)ethyl carbonate hydrochloride] | ≤ 3 h | 6.1 h | considerable amounts | 0.59 h | 156 days | – | – | – | – |
| CS(=O)(=O)c1ccc([C@@H](OC(=O)[C@H](N)CCCN)[C@@H](CF)NC(=O)C(Cl)Cl)cc1.Cl.Cl [Example 8] | ≤ 3 h | – | – | – | 44 days | – | – | < 0.167 h | < 0.167 h |
| CS(=O)(=O)c1ccc([C@@H](OC(=O)CNC(=O)CN)[C@@H](CF)NC(=O)C(Cl)Cl)cc1.Cl [Example 9, (1R,2S)-2-(2,2-dichloroacetamido)-3-fluoro-1-(4-(methylsulfonyl)phenyl)propyl (1-amino-acetoamino)acetate hydrochloride] | ≤ 3 h | 0.89 h | – | 1.4 h | 52 days | 1.2 h | – | – | – |
| CS(=O)(=O)c1ccc([C@@H](OC(=O)CCCCN)[C@@H](CF)NC(=O)C(Cl)Cl)cc1.Cl [Example 10, (1R,2S)-2-(2,2-dichloroacetamido)-3-fluoro-1-(4-(methylsulfonyl)phenyl)propyl 5-aminopentanoate hydrochloride] | – | 100 h | – | 0.49 h | 643 days | 4.1 h | – | – | – |
| C[C@H](N)C(=O)N[C@@H](C)C(=O)O[C@H](c1ccc(S(C)(=O)=O)cc1)[C@@H](CF)NC(=O)C(Cl)Cl.Cl [Example 11, (1R,2S)-2-(2,2-dichloroacetamido)-3-fluoro-1-(4-(methylsulfonyl)phenyl)propyl 2-(2-amino-propionylamino)propionate hydrochloride] | ≤ 3 h | 2.5 h | – | – | 290 days | – | – | – | < 0.167 h |
| CNCCCCC(=O)O[C@H](c1ccc(S(C)(=O)=O)cc1)[C@@H](CF)NC(=O)C(Cl)Cl.Cl [Example 12] | – | 84 h | – | 1.4 h | 567 days | – | – | – | – |
| CCNCCCOC(=O)O[C@H](c1ccc(S(C)(=O)=O)cc1)[C@@H](CF)NC(=O)C(Cl)Cl.Cl [Example 13, (1R,2S)-2-(2,2-dichloroacetamido)-3-fluoro-1-(4-(methylsulfonyl)phenyl)propyl 3-(ethylamino)propyl carbonate hydrochloride] | – | 290 h | – | 0.71 h | 339 days | – | – | – | – |
| CS(=O)(=O)c1ccc([C@@H](OC(=O)COCCN)[C@@H](CF)NC(=O)C(Cl)Cl)cc1.Cl [Example 14, (1R,2S)-2-(2,2-dichloroacetamido)-3-fluoro-1-(4-(methylsulfonyl)phenyl)propyl (2-amino-ethoxy)acetate hydrochloride] | ≤ 3 h | 0.66 h | – | – | 137 days | – | – | – | < 0.167 h |
| Br.C[N+](C)(C)CCCC(=O)O[C@H](c1ccc(S(C)(=O)=O)cc1)[C@@H](CF)NC(=O)C(Cl)Cl [Example 15] | – | 160 h | – | – | > 1000 days | – | – | – | – |
| Br.Cn1cc[n+](CCCC(=O)O[C@H](c2ccc(S(C)(=O)=O)cc2)[C@@H](CF)NC(=O)C(Cl)Cl)c1 [Example 16, 1-[3-[2-(2,2-Dichloro-acetylamino)-3-fluoro-1-(4-methanesulfonyl-phenyl)-propoxycarbonyl]-propyl]-3-methyl-3H-imidazol-1-ium bromide] | – | 350 h | – | 10.5 h | > 1000 days | – | – | – | – |
| CS(=O)(=O)c1ccc([C@@H](OC(=O)CN)[C@@H](CF)NC(=O)C(Cl)Cl)cc1 [Example 17, Amino-acetic acid 2-(2,2-dichloro-acetylamino)-3-fluoro-1-(4-methanesulfonyl-phenyl)-propyl ester] | – | 4.4 h | – | 1.8 h | 18 days | – | – | – | – |
